According to patent publication US7785705B2, “Flower thinning agent” (priority 2002, dated 2010):

Legend:
pear (Kosui) tree [1] = assay: Flower thinning effect on pear (Kosui) tree at low air temperature and bad weather; settings: low air temperature at flowering, bad weather
Excerpt: Using a pear (Kosui) tree, flower thinning effect was confirmed. That is, using the aforementioned pear tree, the flower thinning agent of Example 1 was spread at a concentration indicated in Table 10 two times, at a flowering rate of 30% and 80%. In this respect, at the present experiment, an air temperature at flowering was low, and weather was bad. Therefore, a scatter in flowering was greater than usual. […] Treatment was every branch treatment, and the agent was spread with a back loading sprayer.
(§1) Assessment was expressed as a remaining fruit rate relative to the number of flowering. Regarding medicine damage, results of observation of a leaf state such as defoliation, discolored leaf and deformed leaf were expressed by the following five stages.
According to the same manner as that of Application Example 64 except that any of the flower thinning agents of Examples 4, 5, 7, 9, 15 and 21, and Comparative Examples 1, 4, 8 and 10 was used in place of the flower thinning agent of Example 1, an experiment was performed.
(§2) An effective ingredient concentration was based on a solid matter weight of a lime and sulfur agent.
(§3) An effective ingredient concentration was based on a solid matter weight of itaconic acid.
(§4) An effective ingredient concentration was based on a solid matter weight of high purity lecithin.
An effective ingredient concentration was based on a solid matter weight of calcium formate.

apple (Fuji) tree = assay: Flower thinning effect on apple (Fuji) tree, agent spread two times, one day and three days after full blooming of a central flower; assay type: in vivo
Excerpt: Using an apple (Fuji) tree, flower thinning effect was confirmed. […] Assessment was expressed by a remaining fruit rate regarding a central flower and a lateral flower.

pear (Kosui) tree [2] = assay: Flower thinning effect on pear (Kosui) tree, agent spread two times, at a flowering rate of 30% and 80%; assay type: in vivo
Excerpt: Using a pear (Kosui) tree, flower thinning effect was confirmed. That is, using the aforementioned pear tree, the flower thinning agent of Example 1 was spread at a concentration indicated in Table 6 two times, at a flowering rate of 30% and 80%. […] Treatment was every branch treatment, and the agent was spread with a back loading sprayer.
as §1, §2, §3, §4

grape (King Dela) tree = assay: Flower thinning effect on grape (King Dela) tree, agent spread two times, at a flowering rate of 30% and 80%; assay type: in vivo
Excerpt: Using a grape (King Dela) tree, flower thinning effect was confirmed.
Assessment was expressed as a remaining fruit rate regarding the number of flowering.

[3] = effective ingredient conc. 0.33%
[4] = effective ingredient conc. 1.00%

| Structure (SMILES) | Remaining fruit rate (%) (pear (Kosui) tree [1]; effective ingredient conc. 0.15%) | Remaining fruit rate (%) (pear (Kosui) tree [1]; effective ingredient conc. 0.45%) | Fruition rate (%) Central flower (apple (Fuji) tree; [3]) [%] | Fruition rate (%) Lateral flower (apple (Fuji) tree; [3]) [%] | Fruition rate (%) Central flower (apple (Fuji) tree; [4]) [%] | Fruition rate (%) Lateral flower (apple (Fuji) tree; [4]) [%] | Remaining fruit rate (%) (pear (Kosui) tree [1]; [3]) | Remaining fruit rate (%) (pear (Kosui) tree [1]; [4]) | Remaining fruit rate (%) (pear (Kosui) tree [2]; [3]) | Remaining fruit rate (%) (pear (Kosui) tree [2]; [4]) | Remaining fruit rate (%) (grape (King Dela) tree; [3]) | Remaining fruit rate (%) (grape (King Dela) tree; [4]) |
| --- | --- | --- | --- | --- | --- | --- | --- | --- | --- | --- | --- | --- |
| O=C[O-].O=C[O-].[Ca+2] [calcium formate] | 79.9 | 72.3 |  |  |  |  |  |  |  |  |  |  |
| C=C(CC(=O)O)C(=O)O [itaconic acid] |  |  | 88.2 | 57.9 | 85.4 | 50.3 | 70.0 | 63.9 | 57.9 | 53.3 | 57.5 | 53.0 |
